Laboratory results reported in patent publication US9745299B2, “Substituted tricyclic benzimidazoles as kinase inhibitors” (SELVITA SA, priority 2012, dated 2017).
Where a name gives a salt, the structure may show the parent alone.

Columns and labels:
CDK1/CyclinB = target: T1, CDK1/CyclinB (Homo sapiens, UniProt P06493); assay: ADP-Glo Kinase Assay, CDK1/CyclinB; format: biochemical; settings: read-out: % inhibition at 1 μM CDK1/CyclinB; note: ATP at apparent Km (20 µM)
T1 construct: purchased Millipore, Billerica, Mass., USA
Description: Testing of the compounds described in this invention was carried out using the ADP-Glo™ Kinase Assay from Promega Corporation (Madison, Wis., USA). […] The ADP-Glo™ Kinase Assay is a luminescent ADP detection assay to measure kinase activity by quantifying the amount of ADP produced during a kinase reaction. The kinase assay is performed in kinase assay buffer (5 mM MOPS, pH 7.5, 5 mM MgCl2, 0.4 mM EDTA, 1.5 mM DTT). Test samples initially dissolved in DMSO at 10 mM were diluted with the assay buffer to 1000 nM. A 30 μL volume/well of a mixture of substrates containing ATP (final ATP concentration in each kinase assay was equal to its apparent ATP Km). […] The assay was performed in two steps: first, after the kinase reaction, an equal volume of ADP-Glo™ Reagent was added to terminate the kinase reaction and deplete the remaining ATP. Second, the Kinase Detection Reagent was added to simultaneously convert ADP to ATP and allowed the newly synthesized ATP to be measured using a luciferase/luciferin reaction. The luminescent signal generated was proportional to the ADP concentration produced and was correlated with kinase activity.

HCT116 cells [1] = assay: Matrigel Invasion Chambers, HCT116 invasion; format: cell-based, human; settings: increasing concentrations, 22 h, 10% FBS chemoattractant
Description: Matrigel Invasion Chambers [catalog number 354480 (BD Biosciences)] are useful to study cell invasion of malignant and normal cells. Matrigel Invasion Chambers can be used to study the mechanisms of invasion and to identify factors that interfere with this process in an in vitro environment. According to standard assays known to the skilled person, 5×10^4 HCT116 cells/ml were added in each case to the upper chamber of the Matrigel Invasion Chambers in the presence of increasing concentrations of “Example 1K”, whereas chemoatractant comprising 10% FBS was added to the lower chamber. The Invasion Chambers were incubated for 22 h in a humidified tissue culture incubator at 37° C., 5% CO2. Non-invading cells were removed by scrubing. The cells on the lower surface of the membrane were then stained with Diff-Quik™ stain. The results shown in FIG. 4 indicate that strong and selective CDK8 inhibitors as the “Example 1K” compound appear to be capable of repressing invasiveness of HCT116 colon cancer cells.

HCT116 cells [2] = assay: Combination with Oxaliplatin, MTS cell viability assay, Chou-Thalay method; format: cell-based, human
From the text: Various well-accepted models exist for determination of synergistic and additive effect for two or more drugs in combination. As a matter of example combination index CI can be used as a quantitative measure of the degree of drug interaction in terms of synergism, additive effects and antagonism for a given endpoint of the measurement:
Synergism (C<1) greater than expected additive effect
Additive effect (CI=1) the combined effect predicted by the mass-action law principle in the absence of synergism or antagonism
Antagonism (CI>1) Smaller than expected additive effect
In the present example, the drug interactions between compound “Example 6” and Oxaliplatin which is a platinum-based type of anticancer chemotherapy medicine used to treat colorectal cancer were tested in HCT116 cells. Experimental data points in the MTS cell viability assay were spread for Oxaliplatin below and above the ED50 values in HCT116 cells, whereas concentration of the tested compounds was close to the apparent ED50. Chou-Thalay method for quantification of synergy was applied [Chou et al. Cancer Res. 15; 70(2):440-6, (2010)].

IL6 = assay: LPS assay, IL-6 ELISA in RAW 264.7; format: cell-based, mouse; settings: RAW 264.7, 4 h pre-incubation, LPS 1 μg/ml for 6 h
From the text: (§1) The LPS assay was used to evaluate ability to respond to an inflammatory stimulus by mounting an acute phase response. The acute phase response is characterized by a dramatic increase in the production of a group of proteins by the liver. Bacterial LPS is an endotoxin, a potent inducer of the acute phase response and systemic inflammation. This response is induced by the production of TNFα, IL-1β, and IL-6 from activated monocytes and neutrophils in response to inflammatory stimuli. Evaluation of the three pro-inflammatory cytokines, TNFα, IL-1β, and IL-6, is the current standard method for evaluation of the ability of the immune system to mount an innate inflammatory immune response. In each case, and by methods known to those practiced in the art, RAW 264.7 Mouse leukaemic monocyte macrophage cells were plated at the density of 40 000 cells per well. Next day, cells were pre-incubated with tested compounds (fconc=10 μM) for 4 h and then stimulated with LPS (fconc=1 μg/ml) for 6 h. In the cell culture media IL-6 and TNFα levels were examined by ELISA using BD OptEIA™ Mouse IL-6 ELISA Set Cat. No 555240 and BD OptEIA™ Mouse TNFα ELISA Set Cat. No 555268 (BD Biosciences Pharmingen, SanDiego, Calif., USA), according to manufacturer's instructions.

TNFalpha = assay: LPS assay, TNFα ELISA in RAW 264.7; format: cell-based, mouse; settings: RAW 264.7, 4 h pre-incubation, LPS 1 μg/ml for 6 h
From the text: as §1

T1 sequence (P06493 whole entry): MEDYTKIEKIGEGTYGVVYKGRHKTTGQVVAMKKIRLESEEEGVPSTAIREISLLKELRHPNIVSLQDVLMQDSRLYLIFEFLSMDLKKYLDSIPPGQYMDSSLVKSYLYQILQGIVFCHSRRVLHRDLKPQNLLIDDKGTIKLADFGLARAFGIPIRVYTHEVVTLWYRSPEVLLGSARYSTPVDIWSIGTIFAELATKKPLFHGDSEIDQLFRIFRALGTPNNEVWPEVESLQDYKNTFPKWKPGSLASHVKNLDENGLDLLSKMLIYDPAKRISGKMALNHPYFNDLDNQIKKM
T1 sequence (P14635 whole entry partner): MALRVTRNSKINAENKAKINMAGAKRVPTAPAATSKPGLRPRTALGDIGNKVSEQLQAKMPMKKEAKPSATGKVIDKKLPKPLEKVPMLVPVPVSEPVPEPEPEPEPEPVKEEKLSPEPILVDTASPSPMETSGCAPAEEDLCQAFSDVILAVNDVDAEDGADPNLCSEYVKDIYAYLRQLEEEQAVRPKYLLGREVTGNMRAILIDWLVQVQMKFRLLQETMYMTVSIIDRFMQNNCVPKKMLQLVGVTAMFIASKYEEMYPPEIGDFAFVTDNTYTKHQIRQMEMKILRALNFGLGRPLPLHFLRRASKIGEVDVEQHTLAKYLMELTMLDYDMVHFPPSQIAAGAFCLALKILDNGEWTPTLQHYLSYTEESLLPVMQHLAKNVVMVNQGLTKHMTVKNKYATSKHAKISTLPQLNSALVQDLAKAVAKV

Row | inhibition at 1 µM (CDK1/CyclinB) [%] | Compound | invasiveness of HCT116 cells (FIG. 4) (HCT116 cells [1]) | Combination Index (CI) (HCT116 cells [2]; Example 6 0.6 μM + Oxaliplatin 0.0010 μM) | Combination Index (CI) (HCT116 cells [2]; Example 6 0.6 μM + Oxaliplatin 0.01 μM) | Combination Index (CI) (HCT116 cells [2]; Example 6 0.6 μM + Oxaliplatin 0.1 μM) | Combination Index (CI) (HCT116 cells [2]; Example 6 0.6 μM + Oxaliplatin 1.0 μM) | Combination Index (CI) (HCT116 cells [2]; Example 6 0.6 μM + Oxaliplatin 2.5 μM) | Combination Index (CI) (HCT116 cells [2]; Example 6 0.6 μM + Oxaliplatin 5.0 μM) | LPS-induced IL6 production (FIG. 3) (IL6) | LPS-induced TNFalpha production (FIG. 3) (TNFalpha)
1 | 0 | Cc1c(Br)c(Br)c2c3c1nc(N1CCNCC1)n3CCC2 [Example 1K] | Repression of the invasiveness |  |  |  |  |  |  |  | 
2 | 38 | Brc1c(Br)c2c3c(nc(N4CCNCC4)n3CCC2)c1Br [Example 6, 7,8,9-tribromo-2-(piperazin-1-yl)-5,6-dihydro-4H-imidazo[4,5,1-ij]quinoline maleate] |  | 1.15 | 0.99 | 1.11 | 0.69 | 0.38 | 0.29 | dose dependent reduction | dose dependent reduction
